Source: patent US9546358B2, “Compositions and methods for reducing background DNA amplification” (New England Biolabs, Inc., priority 2012, dated 2017)

What was measured:
[1] = test system: non-template amplification; experiment: LAMP assay, suppression of non-template (background) amplification, real-time SYTO-9 fluorescence; format: biochemical; settings: for Minimum effective concentration of individual additive (Compound B) required for suppression of non-template amplification / Minimum effective concentration of individual additive (Compound A) required for suppression of non-template amplification: single additive, 100% suppression; for effect on non-template amplification: lower temperature
Procedure: (§1) • 0.4-8 ng/μl DNA polymerase (Bst 2.0-Sso7d) in LAMP Buffer [20 mM Tris, 125 mM KCl, 10 mM (NH4)2SO4, 8 mM MgSO4, 1.4 mM dNTPs, 0.1% Tween-20® (Sigma-Aldrich, St. Louis, Mo.), pH 8.8 25° C.] • 1.6 μM Forward internal primer (FIP)/Back internal primer (BIP), 0.2 μM F3/B3, 0.4 μM LoopF/LoopB • 5 ng λ DNA or none (non-template control) per reaction (25 μl)
(§2) The additive solution was added to the amplification mixture to provide a final concentration in the range of 0-40% v/v where the stock solution of additive was solubilized in water. For example, concentrations of isobutyramide in the range of 0.005 M-1.5 M, 0.01 M-1.2 M, or 0.01 M-0.7 M and N-methylformamide in the range of 0.01-2 M, 0.02 M-1.5 M, or 0.02 M-1 M (combined for example, at ratios of 10:1, 8:1, 6:1, 4:1, 2:1, 1.8:1, 1.6:1, 1.4:1, 1.2:1, 1:1 of N-methylformamide:isobutyramide) were tested at various temperatures. Other examples included in the final reaction mixture 0.02 M-1.3 M propionamide, 0.2 M-2 M Urea, 0.1 M-3.8 M formamide, 0.05 M-2 M acetamide, 0.02 M-0.5 M valeramide, 0.01 M-2 M N,N-dimethylformamide, 0.01 M-2 M N,N-diethylformamide, 0.01 M-1.8 M N,N-dimethylbutyramide.
(§3) The extent of amplification of lambda DNA (unless otherwise specified) with a LAMP amplicon size of 100-200 bases was measured by real-time fluorescence using 2 μM SYTO-9® (Life Technologies, Carlsbad, Calif.) double strand DNA intercalating dye (Nagamine, et al., Molecular and Cellular Probes, 16:223-229 (2002)) using the following primers: […]
The reduction in background fluorescence from non-template amplification was quantitatively assessed. The total reaction time for LAMP is 90 minutes. In the absence of additives, a positive signal for an amplification product of a template could be detected at about 3 minutes-15 minutes at temperatures 55° C.-72° C. and for a non-template signal at 8 minutes-30 minutes at temperatures below about 71° C. When a mixture of additives was included in the amplification mixture, a positive signal for template amplification is still seen at 3 minutes-15 minutes but no signal is seen even after 85 minutes for non-template reactions. This is recorded however as the maximum time to illustrate the synergistic effect. […] In all cases, the effect of the ratio of components of the mixture at specific molar concentrations is greater than the effect of each component small molecule individually tested at the same molar concentration and temperature (exemplified by data in Table 2).
The synergistic effect of mixing a carboxamide and N-alkylcarboxamide was examined.

[2] = test system: lambda DNA; experiment: LAMP assay, target (template) amplification, real-time SYTO-9 fluorescence; format: biochemical, lambda phage
Procedure: as §1, §2, §3
The reduction in background fluorescence from non-template amplification was quantitatively assessed. The total reaction time for LAMP is 90 minutes. In the absence of additives, a positive signal for an amplification product of a template could be detected at about 3 minutes-15 minutes at temperatures 55° C.-72° C. and for a non-template signal at 8 minutes-30 minutes at temperatures below about 71° C. […] This is recorded however as the maximum time to illustrate the synergistic effect. […]

[3] = N-methylformamide increased above 1.0 M
[4] = isobutyramide increased above 0.4 M

Structure (SMILES): CN(C)C=O [DMF, N,N-dimethylformamide]
- Minimum effective concentration of individual additive (Compound B) required for suppression of non-template amplification ([1]; 65 °C): 0.77 M

Structure (SMILES): CCN(C=O)CC [DEF, N,N-diethylformamide]
- Minimum effective concentration of individual additive (Compound B) required for suppression of non-template amplification ([1]; 65 °C): 0.26 M

Structure (SMILES): CCCCC(N)=O [VA, valeramide]
- Minimum effective concentration of individual additive (Compound A) required for suppression of non-template amplification ([1]; 65 °C): 0.20 M

Structure (SMILES): CNC=O [NMF, N-methylformamide]
- effect on target amplification ([2]; 1.1 M N-methylformamide, single additive, FIG. 2B): inhibited target amplification above 68 °C
- effect on target amplification [2, 3]: further inhibit the target amplification
- suppression of non-template amplification ([1]; 1.1 M N-methylformamide alone, 60 °C): ~1%
- suppression of non-template amplification ([1]; 1.1 M N-methylformamide alone, 65 °C): ~10%
- effect on non-template amplification [1, 3]: did not affect the non-template amplification at lower temperature
- effect of increasing amounts of single additive on non-template amplification (time to threshold) ([1]; increasing amounts of 3.2 M N-methylformamide, FIG. 6A): no beneficial effect observed
- Minimum effective concentration of individual additive (Compound B) required for suppression of non-template amplification ([1]; 65 °C): 1.1 M

Structure (SMILES): NC=O [FA, formamide]
- Minimum effective concentration of individual additive (Compound A) required for suppression of non-template amplification ([1]; 65 °C): 1.8 M

Structure (SMILES): CCC(N)=O [PIA, propionamide]
- effect of increasing amounts of single additive on non-template amplification (time to threshold) ([1]; increasing amounts of 1.7 M propionamide, FIG. 6B): no beneficial effect observed
- Minimum effective concentration of individual additive (Compound A) required for suppression of non-template amplification ([1]; 65 °C): 0.80 M

Structure (SMILES): CCCC(=O)N(C)C [DMB, N,N-dimethylbutyramide]
- Minimum effective concentration of individual additive (Compound A) required for suppression of non-template amplification ([1]; 65 °C): 0.24 M

Structure (SMILES): CC(C)C(N)=O [IBA, isobutyramide]
- effect on target amplification [2, 4]: further inhibit the target amplification
- suppression of non-template amplification ([1]; 0.4 M isobutyramide alone, 60 °C): ~1%
- suppression of non-template amplification ([1]; 0.4 M isobutyramide alone, 65 °C): ~10%
- effect on non-template amplification [1, 4]: did not affect the non-template amplification at lower temperature
- Minimum effective concentration of individual additive (Compound A) required for suppression of non-template amplification ([1]; 65 °C): 0.41 M
